Values of other authors as cited in patent US20170281596A1, “PHARMACEUTICAL COMBINATION CONTAINING AN ANALGESIC AGENT AND AN ANTISPASMODIC AGENT” (priority 2014, published 2017).

O=C(c1ccccc1)c1ccc2n1CCC2C(=O)O (centres unmarked) [Ketorolac, carboxylic acid-5-Benzoyl-2,3-dihydro-1H-pyrrolisine-1,2-amino-2-hydroxymethyl-1,3-propanediol]
time at which the plasma concentration level is reached (administered every 6 hours): 24 h
urinary elimination of Ketorolac and its metabolites (main route of elimination, remainder through feces): 92%
